Test results from patent US20170240556A1, “BIFLUORODIOXALANE-AMINO-BENZIMIDAZOLE KINASE INHIBITORS FOR THE TREATMENT OF CANCER, AUTOIMMUNEINFLAMMATION AND CNS DISORDERS” (4SC DISCOVERY GMBH, priority 2012, published 2017).

Columns and labels:
Test in all cases: Proliferation Assay
Format in all cases: cell-based
U87MG (brain) = settings: Homo sapiens, U-87 MG, 72 h, read-out: IC50 inhibition of cell growth
Procedure: (§1) For the determination of the inhibitory capacity of compounds of the present invention (in the following: “test compound(s)”) on cell growth, cancer cells were seeded into microtitre plates, treated with different concentrations of test compound or left untreated, and after 72 h the protein content was determined as an equivalent for the cell number.
(§2) Test compounds were dissolved in 100% DMSO and predilutions in cell culture medium were prepared with a final concentration of 0.1% DMSO in medium. The cell culture medium for dilution of the test compounds, consecutive culturing of cell lines and usage during the assay was a cell line specific medium as recommended by the cell line supplier and identical for all three applications mentioned above. After a 24-hour pre-growth period of the seeded cancer cells, the test compound containing media or medium containing 0.1% DMSO as control was added to the cells. The cells were allowed to grow at 37° C. for 72 hours. In addition, all experiments contained a few plates with cells that were processed for measurement immediately after the 24 hours recovery period. These plates contained information about the cell number that existed before treatment, at time zero, and served to calculate the cytotoxicity and/or growth inhibitory effects.
(§3) After treatment, cells were precipitated by addition of 10% TCA (trichloracetic acid). Prior to fixation, the media was aspirated. After an hour of incubation at 4° C. the plates were washed twice with 400 μl of deionized water. Cells were then stained with 100 μl of a 0.08% wt/v SRB (sulforhodamine). The plates were allowed to sit for at least 30 min and washed six times with 1% acetic acid to remove unbound staining agent. The plates were left to dry at room temperature and bound SRB was solubilized with 100 μl of 10 mM Tris base. Measurement of optical density was performed at 560 nm on a Victor 2 plate reader (Perkin Elmer, Germany).
(§4) One common way to express the effect of an anticancer agent is to measure cell viability and survival in the presence of the test agent as % Treated/Control×100. The relationship between the viability and dose is called a dose response curve. Those dose response curves were determined by using algorithms developed by Oncolead GmbH & Co. KG, Munich, Germany, that can be compared to commercial applications, e.g. XLfit™ (ID Business Solutions Ltd., Guildford, UK) algorithm “205”.

ASPC1 (pancreas) = settings: Homo sapiens, 72 h, read-out: IC50 inhibition of cell growth
Procedure: as §1, §2, §3, §4

SKOV3 (ovary) = settings: Homo sapiens, SK-OV-3, 72 h, read-out: IC50 inhibition of cell growth
Procedure: as §1, §2, §3, §4

NCIH292 (lung) = settings: Homo sapiens, NCI-H292, 72 h, read-out: IC50 inhibition of cell growth
Procedure: as §1, §2, §3, §4

SKMEL28 (skin) = settings: Homo sapiens, SK-MEL-28, 72 h, read-out: IC50 inhibition of cell growth
Procedure: as §1, §2, §3, §4

COLO205 (colon) = settings: Homo sapiens, COLO 205, 72 h, read-out: IC50 inhibition of cell growth
Procedure: as §1, §2, §3, §4

MIAPACA2 (pancreas) = settings: Homo sapiens, MIA PaCa-2, 72 h, read-out: IC50 inhibition of cell growth
Procedure: as §1, §2, §3, §4

HELA (cervix) = settings: Homo sapiens, 72 h, read-out: IC50 inhibition of cell growth
Procedure: as §1, §2, §3, §4

IGROV1 (ovary) = settings: Homo sapiens, IGROV-1, 72 h, read-out: IC50 inhibition of cell growth
Procedure: as §1, §2, §3, §4

22RV1 (prostate) = settings: Homo sapiens, 72 h, read-out: IC50 inhibition of cell growth
Procedure: as §1, §2, §3, §4

HEPG2 (liver) = settings: Homo sapiens, 72 h, read-out: IC50 inhibition of cell growth
Procedure: as §1, §2, §3, §4

SKHEP1 (liver) = settings: Homo sapiens, SK-HEP1, 72 h, read-out: IC50 inhibition of cell growth
Procedure: as §1, §2, §3, §4

CASKI (cervix) = settings: Homo sapiens, Ca-Ski, 72 h, read-out: IC50 inhibition of cell growth
Procedure: as §1, §2, §3, §4

HT29 (colon) = settings: Homo sapiens, HT-29, 72 h, read-out: IC50 inhibition of cell growth
Procedure: as §1, §2, §3, §4

A431 (skin) = settings: Homo sapiens, A-431, 72 h, read-out: IC50 inhibition of cell growth
Procedure: as §1, §2, §3, §4

HEK293 (kidney) = settings: Homo sapiens, 72 h, read-out: IC50 inhibition of cell growth
Procedure: as §1, §2, §3, §4

SAOS2 (bone) = settings: Homo sapiens, SAOS-2, 72 h, read-out: IC50 inhibition of cell growth
Procedure: as §1, §2, §3, §4

DLD1 (colon) = settings: Homo sapiens, DLD-1, 72 h, read-out: IC50 inhibition of cell growth
Procedure: as §1, §2, §3, §4

HS729 (muscle) = settings: 72 h, read-out: IC50 inhibition of cell growth
Procedure: as §1, §2, §3, §4

A549 (lung) = settings: Homo sapiens, 72 h, read-out: IC50 inhibition of cell growth
Procedure: as §1, §2, §3, §4

T24 (bladder) = settings: 72 h, read-out: IC50 inhibition of cell growth
Procedure: as §1, §2, §3, §4

TE671 (muscle) = settings: Homo sapiens, TE-671, 72 h, read-out: IC50 inhibition of cell growth
Procedure: as §1, §2, §3, §4

[1] = system: HT1080 (connective tissue); settings: Homo sapiens, HT-1080, 72 h, read-out: IC50 inhibition of cell growth
Procedure: as §1, §2, §3, §4

SW620 (colon) = settings: Homo sapiens, SW-620, 72 h, read-out: IC50 inhibition of cell growth
Procedure: as §1, §2, §3, §4

786O (kidney) = settings: Homo sapiens, 786-0, 72 h, read-out: IC50 inhibition of cell growth
Procedure: as §1, §2, §3, §4

IMR90 (lung) = settings: Homo sapiens, IMR-90, 72 h, read-out: IC50 inhibition of cell growth
Procedure: as §1, §2, §3, §4

Measured: IC50

COc1cccc(C(=O)Nc2nc3cc4c(cc3[nH]2)OC(F)(F)O4)c1 [Compound 56, N-(2,2-difluoro-5H-[1,3]dioxolo[4′,5′:4,5]benzo[1,2-d]imidazol-6-yl)-3-methoxybenzamide]
≤ 1 µM: all assays above
